Reference: patent publication US20230049952A1, “METHODS AND COMPOUNDS FOR RESTORING MUTANT P53 FUNCTION” (PMV Pharmaceuticals, Inc., priority 2020, published 2023)

Tested on: p53 signaling pathway in MT373 tumors
Test: MT373 syngeneic sarcoma model: mouse p53 signaling pathway profiling panel
Assay type: in vivo

CCn1c(C#CCNc2ccccc2)cc2cc(CNC3CCN(C)CC3)ccc21 [Compound 1, 1-Anilino-3-{1-ethyl-5-[(1-methyl-4-piperidylamino)methyl]-1H-indol-2-yl}-2-propyne]
Casp2 fold increase or percent reduction vs vehicle control (75 mg/kg BIDx1, 24 h): 16.13 fold or % | Ccnb1 fold increase or percent reduction vs vehicle control (75 mg/kg BIDx1, 24 h): 65.51 fold or % | Ccne1 fold increase or percent reduction vs vehicle control (75 mg/kg BIDx1, 24 h): 29.87 fold or % | Ccng1 fold increase or percent reduction vs vehicle control (75 mg/kg BIDx1, 24 h): 4.63 fold or % | Ccnh fold increase or percent reduction vs vehicle control (75 mg/kg BIDx1, 24 h): 3.31 fold or % | Cdc25a fold increase or percent reduction vs vehicle control (75 mg/kg BIDx1, 24 h): 34.15 fold or % | Cdk1 fold increase or percent reduction vs vehicle control (75 mg/kg BIDx1, 24 h): 59.92 fold or % | Cdk4 fold increase or percent reduction vs vehicle control (75 mg/kg BIDx1, 24 h): 40.50 fold or % | Cdkn1a fold increase or percent reduction vs vehicle control (75 mg/kg BIDx1, 24 h): 5.16 fold or % | Cdkn2a fold increase or percent reduction vs vehicle control (75 mg/kg BIDx1, 24 h): 16.83 fold or % | Chek1 fold increase or percent reduction vs vehicle control (75 mg/kg BIDx1, 24 h): 52.36 fold or % | Cradd fold increase or percent reduction vs vehicle control (75 mg/kg BIDx1, 24 h): 5.90 fold or % | Cul9 fold increase or percent reduction vs vehicle control (75 mg/kg BIDx1, 24 h): 1.58 fold or % | Dapk1 fold increase or percent reduction vs vehicle control (75 mg/kg BIDx1, 24 h): 1.19 fold or % | Dnmt1 fold increase or percent reduction vs vehicle control (75 mg/kg BIDx1, 24 h): 17.60 fold or % | E2f1 fold increase or percent reduction vs vehicle control (75 mg/kg BIDx1, 24 h): 10.67 fold or % | E2f3 fold increase or percent reduction vs vehicle control (75 mg/kg BIDx1, 24 h): 27.77 fold or % | Egfr fold increase or percent reduction vs vehicle control (75 mg/kg BIDx1, 24 h): 28.18 fold or % | Egr1 fold increase or percent reduction vs vehicle control (75 mg/kg BIDx1, 24 h): 64.73 fold or % | Ep300 fold increase or percent reduction vs vehicle control (75 mg/kg BIDx1, 24 h): 3.09 fold or % | Ercc1 fold increase or percent reduction vs vehicle control (75 mg/kg BIDx1, 24 h): 18.66 fold or % | Esr1 fold increase or percent reduction vs vehicle control (75 mg/kg BIDx1, 24 h): 1.26 fold or % | Fadd fold increase or percent reduction vs vehicle control (75 mg/kg BIDx1, 24 h): 5.60 fold or % | Fas fold increase or percent reduction vs vehicle control (75 mg/kg BIDx1, 24 h): 1.45 fold or % | Fasl fold increase or percent reduction vs vehicle control (75 mg/kg BIDx1, 24 h): 10.36 fold or % | Foxo3 fold increase or percent reduction vs vehicle control (75 mg/kg BIDx1, 24 h): 3.58 fold or % | Gadd45a fold increase or percent reduction vs vehicle control (75 mg/kg BIDx1, 24 h): 19.41 fold or % | Hif1a fold increase or percent reduction vs vehicle control (75 mg/kg BIDx1, 24 h): 13.43 fold or % | Il6 fold increase or percent reduction vs vehicle control (75 mg/kg BIDx1, 24 h): 70.78 fold or % | Jun fold increase or percent reduction vs vehicle control (75 mg/kg BIDx1, 24 h): 38.98 fold or % | Kras fold increase or percent reduction vs vehicle control (75 mg/kg BIDx1, 24 h): 13.87 fold or % | Lig4 fold increase or percent reduction vs vehicle control (75 mg/kg BIDx1, 24 h): 1.17. fold or % | Mdm2 fold increase or percent reduction vs vehicle control (75 mg/kg BIDx1, 24 h): 2.76 fold or % | Mdm4 fold increase or percent reduction vs vehicle control (75 mg/kg BIDx1, 24 h): 1.07 fold or % | Mel1 fold increase or percent reduction vs vehicle control (75 mg/kg BIDx1, 24 h): 15.14 fold or % | Mlh1 fold increase or percent reduction vs vehicle control (75 mg/kg BIDx1, 24 h): 9.12 fold or % | Msh2 fold increase or percent reduction vs vehicle control (75 mg/kg BIDx1, 24 h): 29.40 fold or % | Myod1 fold increase or percent reduction vs vehicle control (75 mg/kg BIDx1, 24 h): 3.54 fold or % | Nf1 fold increase or percent reduction vs vehicle control (75 mg/kg BIDx1, 24 h): 16.46 fold or % | Nfkb1 fold increase or percent reduction vs vehicle control (75 mg/kg BIDx1, 24 h): 15.21 fold or % | Pcna fold increase or percent reduction vs vehicle control (75 mg/kg BIDx1, 24 h): 43.21 fold or % | Pmaip1 fold increase or percent reduction vs vehicle control (75 mg/kg BIDx1, 24 h): 3.81 fold or % | Ppm1d fold increase or percent reduction vs vehicle control (75 mg/kg BIDx1, 24 h): 1.26 fold or % | Prc1 fold increase or percent reduction vs vehicle control (75 mg/kg BIDx1, 24 h): 26.03 fold or % | Prkca fold increase or percent reduction vs vehicle control (75 mg/kg BIDx1, 24 h): 16.45 fold or % | Pten fold increase or percent reduction vs vehicle control (75 mg/kg BIDx1, 24 h): 1.18 fold or % | Pttg1 fold increase or percent reduction vs vehicle control (75 mg/kg BIDx1, 24 h): 1.07 fold or % | Rb1 fold increase or percent reduction vs vehicle control (75 mg/kg BIDx1, 24 h): 1.14 fold or % | Rela fold increase or percent reduction vs vehicle control (75 mg/kg BIDx1, 24 h): 32.18 fold or % | Rprm fold increase or percent reduction vs vehicle control (75 mg/kg BIDx1, 24 h): 1.77 fold or % | Serpinb5 fold increase or percent reduction vs vehicle control (75 mg/kg BIDx1, 24 h): 1.20 fold or % | Sesn2 fold increase or percent reduction vs vehicle control (75 mg/kg BIDx1, 24 h): 2.05 fold or % | Sfn fold increase or percent reduction vs vehicle control (75 mg/kg BIDx1, 24 h): 15.25 fold or % | Sirt1 fold increase or percent reduction vs vehicle control (75 mg/kg BIDx1, 24 h): 6.13 fold or % | Stat1 fold increase or percent reduction vs vehicle control (75 mg/kg BIDx1, 24 h): 1.08 fold or % | Tnf fold increase or percent reduction vs vehicle control (75 mg/kg BIDx1, 24 h): 24.76 fold or % | Traf1 fold increase or percent reduction vs vehicle control (75 mg/kg BIDx1, 24 h): 1.06 fold or % | Trp53bp2 fold increase or percent reduction vs vehicle control (75 mg/kg BIDx1, 24 h): 5.61 fold or % | Trp53 fold increase or percent reduction vs vehicle control (75 mg/kg BIDx1, 24 h): 18.16 fold or % | Apex1 fold increase or percent reduction vs vehicle control (75 mg/kg BIDx1, 48 h): 21.30 fold or % | Atm fold increase or percent reduction vs vehicle control (75 mg/kg BIDx1, 48 h): 18.31 fold or % | Atr fold increase or percent reduction vs vehicle control (75 mg/kg BIDx1, 48 h): 14.07 fold or % | Bag1 fold increase or percent reduction vs vehicle control (75 mg/kg BIDx1, 48 h): 42.29 fold or % | Bax fold increase or percent reduction vs vehicle control (75 mg/kg BIDx1, 48 h): 23.39 fold or % | Bbc3 fold increase or percent reduction vs vehicle control (75 mg/kg BIDx1, 48 h): 1.32 fold or % | Bid fold increase or percent reduction vs vehicle control (75 mg/kg BIDx1, 48 h): 1.21 fold or % | Birc5 fold increase or percent reduction vs vehicle control (75 mg/kg BIDx1, 48 h): 50.48 fold or % | Brca1 fold increase or percent reduction vs vehicle control (75 mg/kg BIDx1, 48 h): 31.46 fold or % | Brca2 fold increase or percent reduction vs vehicle control (75 mg/kg BIDx1, 48 h): 25.33 fold or % | Btg2 fold increase or percent reduction vs vehicle control (75 mg/kg BIDx1, 48 h): 11.23 fold or % | Casp2 fold increase or percent reduction vs vehicle control (75 mg/kg BIDx1, 48 h): 9.89 fold or % | Ccnb1 fold increase or percent reduction vs vehicle control (75 mg/kg BIDx1, 48 h): 59.73 fold or % | Ccne1 fold increase or percent reduction vs vehicle control (75 mg/kg BIDx1, 48 h): 5.97 fold or % | Ccng1 fold increase or percent reduction vs vehicle control (75 mg/kg BIDx1, 48 h): 9.36 fold or % | Ccnh fold increase or percent reduction vs vehicle control (75 mg/kg BIDx1, 48 h): 12.98 fold or % | Cdc25a fold increase or percent reduction vs vehicle control (75 mg/kg BIDx1, 48 h): 16.12 fold or % | Cdk1 fold increase or percent reduction vs vehicle control (75 mg/kg BIDx1, 48 h): 55.02 fold or % | Cdk4 fold increase or percent reduction vs vehicle control (75 mg/kg BIDx1, 48 h): 48.77 fold or % | Cdkn1a fold increase or percent reduction vs vehicle control (75 mg/kg BIDx1, 48 h): 1.03 fold or % | Cdkn2a fold increase or percent reduction vs vehicle control (75 mg/kg BIDx1, 48 h): 23.77 fold or % | Chek1 fold increase or percent reduction vs vehicle control (75 mg/kg BIDx1, 48 h): 37.45 fold or % | Cradd fold increase or percent reduction vs vehicle control (75 mg/kg BIDx1, 48 h): 13.67 fold or % | Cul9 fold increase or percent reduction vs vehicle control (75 mg/kg BIDx1, 48 h): 2.20 fold or % | Dapk1 fold increase or percent reduction vs vehicle control (75 mg/kg BIDx1, 48 h): 1.46 fold or %
